# Measured values as given in US20250242060A1, “CHEMOGENETIC REGULATION OF PEPTIDE FUNCTION” (priority 2022, published 2025).
# “Also recorded” adds a separate entry of the source.
# How the values were obtained:
# [1] = target: T1, CapN (Homo sapiens, UniProt P62942, F37V); assay: Shield-1 reversibility characterization with CapN-caged SsrA on yeast surface; assay type: binding; settings: 10 min shield-1, washed, incubated up to 12 h without shield-1
# T1 construct: expressed in transfected cells; host or cells: Saccharomyces cerevisiae EBY100, surface display from pCTCON2
# Protocol: FIG. 4. […] Yeast cells were incubated with shield-1 for 10 min, followed by washing to remove excess shield-1. […] Values are median biotin intensity of FLAG-positive cells (Q2+Q4). […] This experiment was performed once.
# Yeast that expressed SsrA (CapC constructs) was subject to APEX2 labeling^40 prior to labeling with antibody-fluorophore and streptavidin-fluorophore conjugates. Samples were incubated with 100 μL of PBSB containing SspB-APEX2 (expressed and purified as described above, under “Expression and purification of SspB-APEX2”) and 5 μM shield-1 at room temperature for 10 min with rotation. For negative controls, either SspB-APEX2 or shield-1, or both, was not present in PBSB. […]
# (§1) After TEVp or APEX2 labeling, samples were labeled with antibody-fluorophore and/or streptavidin-fluorophore conjugates. […] All samples were resuspended in PBSB and analyzed or sorted by FACS (fluorescence-activated cell sorting, following procedures described under “FACS analysis and library selection”) within 24 h of labeling.
# (§2) After labeling according to the procedures described above (under “Yeast labeling”), non-library yeast samples were analyzed with an LSRFortessa cell analyzer flow cytometer (BD Biosciences) equipped with 640 nm laser and 670/14 emission filter (for Alexa Fluor647) as well as 561 nm laser and 586/15 emission filter (for Alexa Fluor568 and PE). […]
# [2] = target: T2, LID (FKBP with original binding sequence) fused to TEVcs (Homo sapiens, UniProt P62942, F37V); assay: Yeast surface protease cleavage assay, TEVcs caged by LID; assay type: biochemical; settings: LID degradation sequence replaced with TEVcs
# T2 construct: TEVcs (ENLYFQ/G) (C); HA (C); expressed in transfected cells; host or cells: Saccharomyces cerevisiae EBY100, surface display from pCTCON2
# Protocol: (§3) The ability of LID to cage two short peptides that have been previously shown to be controllable by the AsLOV2 domain was tested. […] The degradation sequence (RRRGN) in LID was replaced with TEVcs or SsrA, and the remainder of the binding sequence and linker was retained (FIG. 1d).
# Yeast that expressed TEV protease cleavage site (CapN constructs) was treated with TEVp prior to labeling with antibody-fluorophore conjugate. Samples were incubated with 200 μL PBSB containing TEVp (expressed and purified as described above, under “Expression and purification of TEV protease”) and 5 μM shield-1 at 4° C. for 3 h with rotation. For negative control, either TEVp or shield-1, or both, was not present in PBSB. […]
# as §1, §2
# [3] = target: T3, LID (FKBP with original binding sequence) fused to SsrA (Homo sapiens, UniProt P62942, F37V); assay: Yeast surface binding assay, SsrA caged by LID; settings: LID degradation sequence replaced with SsrA
# T3 construct: expressed in transfected cells; host or cells: Saccharomyces cerevisiae EBY100, surface display from pCTCON2
# Protocol: as §3
# Yeast that expressed SsrA (CapC constructs) was subject to APEX2 labeling^40 prior to labeling with antibody-fluorophore and streptavidin-fluorophore conjugates. Samples were incubated with 100 μL of PBSB containing SspB-APEX2 (expressed and purified as described above, under “Expression and purification of SspB-APEX2”) and 5 μM shield-1 at room temperature for 10 min with rotation. […]
# as §1, §2
# [4] = system: CAPs-caged TEVcs with TEV protease in HEK 293T cells; assay: Shield-1 induced delocalization from the plasma membrane to the cytosol; assay type: cell-based; settings: 10 μM shield-1, 18 h
# Protocol: CAPs-caged TEVcs were anchored to the plasma membrane, followed by the POI (FIG. 9c). Under no shield-1 conditions, TEVcs are inaccessible to the co-expressed TEV protease, and the POI remains localized on the plasma membrane. With shield-1, TEVcs are uncaged and cleaved by TEV protease, thereby releasing the POI from the cell membrane.
# Two extra wells without any infection are also plated for background subtraction. […] The two non-infection wells are treated with shield-1 and without shield-1, respectively. HEK 293T cells were incubated for 18 h at 37° C. before imaging.
# [5] = system: CAPs-caged NLS (PKIt NES-EGFP-CapN-NLS-CapC) in HEK 293T cells; assay: Shield-1 controlled nuclear-cytoplasmic protein distribution; assay type: cell-based; settings: 10 μM shield-1, 18 h
# Text: The nucleocytoplasmic distribution of many eukaryotic proteins is a common determinant of their functions^30. Previously, NLS has been controlled by light through customized engineering with the AsLOV2 domain^13,14. To test if NLS is controlled by CAPs in a shield-I-dependent manner, a single-chain construct was designed in which a POI is expressed as a fusion protein with CAPs-caged NLS (FIG. 9e). […] Addition of shield-1 opens the CAPs and exposes NLS to endogenous importins, bringing the POI to the nucleus. Due to the strength of the NLS, a weak nuclear export signal, PKIt^13, was added to the construct to reduce the nuclear localization of the protein in the basal state.
# HEK 293T cells were incubated for 18 h at 37° C. before imaging. […] Individual cells and the nuclei are determined by mCherry signal. Mean intensity and area are acquired with Nikon NIS-Elements analysis module. Mean intensities were subtracted by background mean intensity, and the resulting number is multiplied with the area to give total intensities. The EGFP distribution ratio was calculated by the total intensity of EGFP in the cytosol to that in the whole cell. P value was determined by unpaired two-tailed t-tests.
# [6] = system: CAPs-caged SsrA split transcription factor in HEK 293T cells; assay: Shield-1 dependent gene transcription activation, Gal4 DBD, UAS-mCherry reporter; assay type: cell-based; design: Gene expression (mCherry) at different shield-1 concentrations: dose or concentration left out as unconfirmed; settings: for Shield-1-induced increase in mCherry intensity: + vs - shield-1
# [7] = target: T4, CAPs-caged SsrA split transcription factor (P2A construct u4) in rat cortical neurons UniProt P62942, F37V); assay: Shield-1 dependent gene transcription in cultured neurons, TetR DBD, TRE-mCherry reporter; assay type: cell-based; settings: AAV, 2 μM shield-1, 24 h
# T4 construct: P2A self-cleaving peptide, separating it from the SspB-VP16 part (cleaved yes); host or cells: cultured rat cortical neurons, AAV
# Protocol: To test the CAPs chemical-dependent transcriptional system in neuroscience applications, it was tested in cultured neurons. To enable homogeneous expression of DNA in stringent experiments, we generated single viral constructs that express both the DNA-binding and the transcription-activation domains via the self-cleaving peptide P2A or the internal ribosome entry site (TRES) were constructed (FIG. 12b). […] The P2A construct was then used to introduce the TetR DBD and VP16 transcription-activation domain into cultured rat cortical neurons through adeno-associated viruses (AAV), together with another AAV encoding the TRE-mCherry reporter gene. Shield-1 induced 44-fold increase in mCherry reporter gene expression compared to the no shield-1 condition (FIG. 12e and FIG. 19), showing that this system works robustly in cultured neurons.
# Rat cortical neurons (Thermo Fisher Scientific, Cat #A1084001) were plated according to the user protocol. […] The viable cell density was determined by adding 10 μL of the cell suspension to 10 μl 0.4% Trypan blue, followed by cell counting using hemocytometer. […]
# For neuronal infection, either concentrated AAVes or supernatant AAVes were added the neurons at DIV5-DIV10 (days in vitro). […] P values were determined by unpaired two-tailed t-tests.
# [8] = system: mu-opioid receptor (MOR); assay: Split NanoLuc assay, 1-chain CapC-caged met-enkephalin fused to opioid receptor, Nb44 recruitment; assay type: cell-based; settings: HEK293T cells, 1-chain design
# Text: To test shield-1 chemical-dependent regulation of an opioid peptide, CapC-caged met-enkephalin was fused directly onto the N-terminus of the opioid receptor as shown in the right panel of FIG. 22. In this design, the M-PROBE cell membrane tethered opioid peptides (M-PROBE) and the opioid receptors were expressed in a fixed ratio in close proximity.
# [9] = target: FKBP12(F36V) (Homo sapiens, UniProt P62942, F37V); settings: cited from earlier work
# [10] = system: mu-opioid receptor (MOR); assay: GloSensor cAMP assay, single chain met-enkephalin-CapC-MOR; settings: HEK 293T, forskolin stimulated
# Text: A cyclic adenosine monophosphate (cAMP)-dependent luciferase (GloSensor) was used to monitor the activation of mu-opioid receptor. By expressing the real-time sensor GloSensor in cells, greater luminescence is observed when the cAMP concentration is high, and lower luminescence when the cAMP concentration is low. The GloSensor assay complements the split NanoLuc assay because it measures a downstream event rather than just binding between a G protein and the receptor i.e., membrane tethered opioid peptides (M-PROBE) activation not only causes G protein recruitment, but also downstream signaling events.
# To test whether the M-PROBE induces downstream signaling as a free opioid, and that function of met-enkephalin is well-preserved in the membrane-tethered geometry, the same single chain met-enkephalin-CapC-MOR was expressed on the membrane of HEK 293T cells, and co-transfected cells with the cAMP-dependent luciferase. After overnight protein expression, HEK 293T cells were stimulated with forskolin to enhance the cAMP concentration within the cells. MOR is an inhibitory G-protein coupled receptor (GPCR), and its activation leads to decreased cAMP levels. A high cAMP concentration magnifies the effect of MOR activation.
# [11] = target: CAPs-caged SsrA (mCherry-CapN-SsrA-CapC-CAAX) with SspB-EGFP in HEK 293T cells (Homo sapiens, UniProt P62942, F37V); assay: Shield-1 induced protein translocation to the plasma membrane; settings: 1 μM shield-1
# Chain of CAPs-caged SsrA (mCherry-CapN-SsrA-CapC-CAAX) with SspB-EGFP in HEK 293T cells (P62942 with tags, fused parts or gaps F37V): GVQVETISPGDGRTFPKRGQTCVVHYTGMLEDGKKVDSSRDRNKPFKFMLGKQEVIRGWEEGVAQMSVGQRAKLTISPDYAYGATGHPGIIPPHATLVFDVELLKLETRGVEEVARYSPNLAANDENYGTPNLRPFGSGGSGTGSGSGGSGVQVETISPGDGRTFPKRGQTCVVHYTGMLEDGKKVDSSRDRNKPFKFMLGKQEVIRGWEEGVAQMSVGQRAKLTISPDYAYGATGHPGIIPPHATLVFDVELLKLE
# Text: To test use of CAPs for protein translocation, a shield-1 induced membrane localization system was designed (FIG. 9). In this design, CAPs-caged SsrA peptide is localized on the plasma membrane of HEK 293T cells by fusing to a transmembrane domain. The interacting partner of SsrA, SspB protein, is fused to the protein of interest (POI). As an example, evolved green fluorescent protein (EGFP) was used as the POI. Without shield-1, no binding between SsrA and SspB occurs, and EGFP is found throughout the cell.
# Cells were incubated for 24 h at 37° C. before further processing. HEK293T cells were imaged with 60× oil-immersion objective on the Nikon inverted confocal microscope. Shield-1 dissolved in complete growth media was added gently to the top of the media to 1 μM during imaging. The intensity profile was acquired with Nikon NIS-Elements analysis module and plotted by GraphPad Prism 7.
# T1 sequence (P62942 with tags, fused parts or gaps F37V): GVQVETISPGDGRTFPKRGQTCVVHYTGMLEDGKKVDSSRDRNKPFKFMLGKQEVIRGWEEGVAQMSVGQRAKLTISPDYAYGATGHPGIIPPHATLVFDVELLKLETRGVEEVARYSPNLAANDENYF
# Chain of FKBP12(F36V) (P62942 whole entry F37V): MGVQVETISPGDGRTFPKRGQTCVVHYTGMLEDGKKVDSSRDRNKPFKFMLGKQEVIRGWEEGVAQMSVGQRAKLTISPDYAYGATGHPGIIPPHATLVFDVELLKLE
# T3 sequence (P62942 with tags, fused parts or gaps F37V): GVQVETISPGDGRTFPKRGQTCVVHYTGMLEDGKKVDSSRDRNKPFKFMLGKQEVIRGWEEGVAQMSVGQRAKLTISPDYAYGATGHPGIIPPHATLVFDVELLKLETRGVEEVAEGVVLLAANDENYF
# T2 sequence (P62942 with tags, fused parts or gaps F37V limits assumed): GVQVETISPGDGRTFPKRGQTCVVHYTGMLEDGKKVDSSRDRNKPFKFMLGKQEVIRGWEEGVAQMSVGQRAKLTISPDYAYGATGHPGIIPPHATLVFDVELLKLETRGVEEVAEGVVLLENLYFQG
compound,measurement,setting,value
CC[C@H](C(=O)N1CCCC[C@H]1C(=O)O[C@H](CCc1ccc(OC)c(OC)c1)c1cccc(OCCN2CCOCC2)c1)c1cc(OC)c(OC)c(OC)c1 [shield-1],Biotin signal / CapN state after washing away shield-1,[1],No decrease in biotin signal; also recorded: CapN remained open
same,Shield-1 dependence of TEVcs accessibility,[2],not observed
same,Shield-1 dependence of SsrA accessibility,[3],not observed
same,EGFP localization after shield-1 addition,[4],depletes EGFP from the plasma membrane; also recorded: depleted the EGFP from the plasma membrane and significantly increased its presence in the cytoplasm
same,EGFP nuclear-cytosolic distribution after shield-1 addition,[5],depleted from the cytosol and preferentially localized in the nucleus
same,Shield-1-induced increase in mCherry intensity,[6]; CAPs (tandem) caged 8-amino-acid SsrA,~25 fold
same,Shield-1 dependent reporter gene expression change,"[6]; CAPs caged 7-amino-acid SsrA (AANDENY), construct u3",156 fold
same,Shield-1-induced increase in mCherry intensity,[6]; CapN caged 8-amino-acid SsrA,~4 fold
same,Gene expression (mCherry) at different shield-1 concentrations,[6]; construct u3,robust gene expression
same,Shield-1 incubation period sufficient to induce gene expression,"[6]; construct u3, 1 μM shield-1, imaged 24 h after addition",30 min
same,Gene expression induction,"[6]; construct u3, overnight incubation, shield-1 50 nM or above",> 30 fold
same,Gene expression,"[6]; construct u3, overnight incubation, shield-1 below 10 nM",did not induce gene expression
same,Shield-1 dependent dynamic range,[6]; maximum over caged peptides,up to 156 fold
same,Level of EGFP (transcription-activation domain expression),[6]; shield-1 added to EGFP-SspB-VP16 alone,No difference was found; also recorded: did not increase the level of EGFP
same,Increase in mCherry expression,[6]; single viral IRES construct (u5),123 fold
same,Increase in mCherry expression,[6]; single viral P2A construct (u4),83 fold
same,Increase in mCherry reporter gene expression vs no shield-1,[7],44 fold
same,Luminescence signal (RLU),[8],increase the signal
same,Affinity for FKBP relative to wild-type FKBP,[9]; FKBP12(F36V) vs wild-type FKBP,over 1000 fold
same,Affinity for FKBP,[9]; FKBP12(F36V),sub-nanomolar
same,Decrease in luminescence,[10]; shield-1 treated,~50%
same,Time to EGFP translocation to the plasma membrane,[11],within seconds
C[C@@H](NC(=O)[C@@H](N)Cc1ccc(O)cc1)C(=O)NCC(=O)N(C)[C@@H](Cc1ccccc1)C(=O)NCCO [DAMGO],Decrease in luminescence,[10]; 10 micromolar,~80%
